Experimental data: article PMC5218480 (PLoS ONE, 2017)

System: MV-4-11 cells
Experiment: Gene expression microarray analysis (Affymetrix PrimeView) and GSEA
Format: cell-based, human
Parameters: RFU PODN (11730768_x_at) / Fold change /veh PODN (11730768_x_at) / RFU LINC00158 (11744669_a_at) / Fold change /veh LINC00158 (11744669_a_at) / RFU DUSP10 (11751237_a_at) / Fold change /veh DUSP10 (11751237_a_at) / RFU ID3 (11757404_x_at) / Fold change /veh ID3 (11757404_x_at) / RFU PLEKHG5 (11737974_s_at) / Fold change /veh PLEKHG5 (11737974_s_at) / RFU LRRC4B (11730491_at) / Fold change /veh LRRC4B (11730491_at) / RFU GIMAP4 (11747438_a_at) / Fold change /veh GIMAP4 (11747438_a_at) / RFU KRT8 (11758183_x_at) / Fold change /veh KRT8 (11758183_x_at) / RFU CNN1 (11734310_a_at) / Fold change /veh CNN1 (11734310_a_at) / RFU VPS37D (11726825_at) / Fold change /veh VPS37D (11726825_at) / RFU C10orf10 (11716522_x_at) / Fold change /veh C10orf10 (11716522_x_at) / RFU KIR2DL2 /// KIR2DL4 /// KIR2DL5A /// KIR2DL5B /// KIR2DS1 /// KIR2DS2 /// KIR2DS3 /// KIR2DS4 /// KIR3DL3 /// KIR3DL3 /// KIR3DS1 (11738374_at) / Fold change /veh KIR2DL2 /// KIR2DL4 /// KIR2DL5A /// KIR2DL5B /// KIR2DS1 /// KIR2DS2 /// KIR2DS3 /// KIR2DS4 /// KIR3DL3 /// KIR3DL3 /// KIR3DS1 (11738374_at) / RFU C1QL1 (11718748_at) / Fold change /veh C1QL1 (11718748_at) / RFU TMPRSS4 (11747572_a_at) / Fold change /veh TMPRSS4 (11747572_a_at) / RFU HAMP (11756126_x_at) / Fold change /veh HAMP (11756126_x_at) / RFU RNFT2 (11725882_a_at) / Fold change /veh RNFT2 (11725882_a_at) / RFU NR4A2 (11747474_a_at) / Fold change /veh NR4A2 (11747474_a_at) / RFU ABCC12 (11746883_a_at) / Fold change /veh ABCC12 (11746883_a_at) / RFU TMEM136 (11760407_x_at) / Fold change /veh TMEM136 (11760407_x_at) / RFU CLDN22 /// WWC2 (11732394_at) / Fold change /veh CLDN22 /// WWC2 (11732394_at) / RFU HLA-DPB1 (11760878_x_at) / Fold change /veh HLA-DPB1 (11760878_x_at) / RFU SPINT1 (11716480_a_at) / Fold change /veh SPINT1 (11716480_a_at) / RFU GAP43 (11754022_s_at) / Fold change /veh GAP43 (11754022_s_at) / RFU A4GNT (11735810_at) / Fold change /veh A4GNT (11735810_at) / RFU PRB3 (11715151_x_at) / Fold change /veh PRB3 (11715151_x_at) / RFU TUBB4B (11761932_at) / Fold change /veh TUBB4B (11761932_at) / RFU CAPN14 (11732068_a_at) / Fold change /veh CAPN14 (11732068_a_at) / RFU TMCC2 (11721928_a_at) / Fold change /veh TMCC2 (11721928_a_at) / RFU IRGQ (11745062_a_at) / Fold change /veh IRGQ (11745062_a_at) / RFU FAM174B (11720279_a_at) / Fold change /veh FAM174B (11720279_a_at) / RFU TMPRSS4 (11748680_a_at) / Fold change /veh TMPRSS4 (11748680_a_at) / RFU FAM212B (11763350_a_at) / Fold change /veh FAM212B (11763350_a_at) / RFU PLEKHG5 (11743358_a_at) / Fold change /veh PLEKHG5 (11743358_a_at) / RFU ZSCAN30 (11745921_a_at) / Fold change /veh ZSCAN30 (11745921_a_at) / RFU CMKLR1 (11741424_a_at) / Fold change /veh CMKLR1 (11741424_a_at) / RFU LOC101060620 /// MAPK8IP1 (11723275_at) / Fold change /veh LOC101060620 /// MAPK8IP1 (11723275_at) / RFU SPTSSB (11747773_x_at) / Fold change /veh SPTSSB (11747773_x_at) / RFU PRSS12 (11739890_at) / Fold change /veh PRSS12 (11739890_at) / RFU BIN1 (11741810_x_at) / Fold change /veh BIN1 (11741810_x_at) / RFU WNT11 (11732464_a_at) / Fold change /veh WNT11 (11732464_a_at) / RFU C10orf10 (11716521_a_at) / Fold change /veh C10orf10 (11716521_a_at) / RFU C5orf56 (11738089_at) / Fold change /veh C5orf56 (11738089_at) / RFU CYB561 (11721691_x_at) / Fold change /veh CYB561 (11721691_x_at) / RFU ANKRD19P (11752326_a_at) / Fold change /veh ANKRD19P (11752326_a_at) / RFU OR2T12 /// OR2T33 /// OR2T8 (11738714_s_at) / Fold change /veh OR2T12 /// OR2T33 /// OR2T8 (11738714_s_at) / RFU VCAN (11748164_a_at) / Fold change /veh VCAN (11748164_a_at) / RFU JSRP1 (11732532_at) / Fold change /veh JSRP1 (11732532_at) / RFU KRTAP10-11 (11738290_x_at) / Fold change /veh KRTAP10-11 (11738290_x_at) / RFU MYO3A (11730013_a_at) / Fold change /veh MYO3A (11730013_a_at) / RFU EBF3 (11725865_a_at) / Fold change /veh EBF3 (11725865_a_at) / RFU CAMK2N1 (11719241_x_at) / Fold change /veh CAMK2N1 (11719241_x_at) / RFU C5orf56 (11738088_a_at) / Fold change /veh C5orf56 (11738088_a_at) / RFU OLFML3 (11715873_a_at) / Fold change /veh OLFML3 (11715873_a_at) / RFU LOC100653217 /// NTM (11731650_a_at) / Fold change /veh LOC100653217 /// NTM (11731650_a_at) / RFU MAPK11 (11762145_a_at) / Fold change /veh MAPK11 (11762145_a_at) / RFU FIZ1 (11724087_x_at) / Fold change /veh FIZ1 (11724087_x_at) / RFU OASL (11726364_x_at) / Fold change /veh OASL (11726364_x_at) / RFU SOX15 (11748057_x_at) / Fold change /veh SOX15 (11748057_x_at) / RFU CD79A (11719716_a_at) / Fold change /veh CD79A (11719716_a_at) / RFU HIST1H1D (11736915_at) / Fold change /veh HIST1H1D (11736915_at) / RFU CASKIN2 (11723855_a_at) / Fold change /veh CASKIN2 (11723855_a_at) / RFU LOC730098 (11760151_x_at) / Fold change /veh LOC730098 (11760151_x_at) / RFU OR4N2 (11742367_at) / Fold change /veh OR4N2 (11742367_at) / RFU PRRT2 (11749266_a_at) / Fold change /veh PRRT2 (11749266_a_at) / RFU SNX32 (11753110_a_at) / Fold change /veh SNX32 (11753110_a_at) / RFU CDHR5 (11726645_a_at) / Fold change /veh CDHR5 (11726645_a_at) / RFU RCAN1 (11760418_a_at) / Fold change /veh RCAN1 (11760418_a_at) / RFU FAM167A (11723789_a_at) / Fold change /veh FAM167A (11723789_a_at) / RFU FAM26E (11764081_at) / Fold change /veh FAM26E (11764081_at) / RFU ISYNA1 (11749810_s_at) / Fold change /veh ISYNA1 (11749810_s_at) / RFU ACY1 (11761880_at) / Fold change /veh ACY1 (11761880_at) / RFU 11764098_at / Fold change /veh 11764098_at / RFU SAMD14 (11745864_x_at) / Fold change /veh SAMD14 (11745864_x_at) / RFU NPB (11741838_a_at) / Fold change /veh NPB (11741838_a_at) / RFU TMPRSS6 (11731388_a_at) / Fold change /veh TMPRSS6 (11731388_a_at) / RFU KRTAP10-2 (11738614_at) / Fold change /veh KRTAP10-2 (11738614_at) / RFU ARHGAP8 /// PRR5-ARHGAP8 (11727945_x_at) / Fold change /veh ARHGAP8 /// PRR5-ARHGAP8 (11727945_x_at) / RFU KRTAP5-7 /// NADSYN1 (11734609_at) / Fold change /veh KRTAP5-7 /// NADSYN1 (11734609_at) / RFU RASL12 (11751679_a_at) / Fold change /veh RASL12 (11751679_a_at) / RFU CDKN2B (11736163_a_at) / Fold change /veh CDKN2B (11736163_a_at) / RFU PRF1 (11729649_at) / Fold change /veh PRF1 (11729649_at) / RFU, ZNF638 /// ZNF638-IT1 / Fold change vs veh, ZNF638 /// ZNF638-IT1 / RFU, PANK3 / Fold change vs veh, PANK3 / RFU, SH3YL1 / Fold change vs veh, SH3YL1 / RFU, ZEB2 / Fold change vs veh, ZEB2 / RFU, NRIP1 / Fold change vs veh, NRIP1 / RFU, PTTG1IP / Fold change vs veh, PTTG1IP / RFU, CAPN2 / Fold change vs veh, CAPN2 / RFU, MED14 / Fold change vs veh, MED14 / RFU, SNORA58 / Fold change vs veh, SNORA58 / RFU, C1orf63 / Fold change vs veh, C1orf63 / RFU, LRRFIP1 / Fold change vs veh, LRRFIP1 / RFU, NDUFAF7 / Fold change vs veh, NDUFAF7 / RFU, SLC12A2 / Fold change vs veh, SLC12A2 / RFU, IBTK / Fold change vs veh, IBTK / RFU, ESF1 / Fold change vs veh, ESF1 / Fold change vs veh, TMEM50B / RFU, TAOK1 / Fold change vs veh, TAOK1 / RFU, ACBD3 / Fold change vs veh, ACBD3 / RFU, TMA16 / Fold change vs veh, TMA16 / RFU, RWDD3 / Fold change vs veh, RWDD3 / RFU, BCAT1 / Fold change vs veh, BCAT1 / RFU, EDEM3 / Fold change vs veh, EDEM3 / RFU, TMEM33 / Fold change vs veh, TMEM33 / RFU, WDR75 / Fold change vs veh, WDR75 / RFU, AHCTF1 / Fold change vs veh, AHCTF1 / RFU, TFRC / Fold change vs veh, TFRC / RFU, ZDHHC17 / Fold change vs veh, ZDHHC17 / RFU, NOM1 / Fold change vs veh, NOM1 / RFU, ARL8B / Fold change vs veh, ARL8B / RFU, ZBTB11 / Fold change vs veh, ZBTB11 / RFU, TAMM41 / Fold change vs veh, TAMM41 / RFU, KIAA1704 /// LOC100996395 / Fold change vs veh, KIAA1704 /// LOC100996395 / RFU, ING1 / Fold change vs veh, ING1 / RFU, TRMT61B / Fold change vs veh, TRMT61B / RFU, FUBP3 / Fold change vs veh, FUBP3 / RFU, TP53 / Fold change vs veh, TP53 / RFU, TNKS2 / Fold change vs veh, TNKS2 / RFU, ZFP14 / Fold change vs veh, ZFP14 / RFU, ACTR2 / Fold change vs veh, ACTR2 / RFU, PPP3R1 / Fold change vs veh, PPP3R1 / RFU, PIK3R1 / Fold change vs veh, PIK3R1 / RFU, HNRNPA1 / Fold change vs veh, HNRNPA1 / RFU, RNF170 / Fold change vs veh, RNF170 / RFU, ZNF28 / Fold change vs veh, ZNF28 / RFU, RNGTT / Fold change vs veh, RNGTT / RFU, OGT / Fold change vs veh, OGT / RFU, BRD1 / Fold change vs veh, BRD1 / RFU, MARS / Fold change vs veh, MARS / RFU, ZNF655 / Fold change vs veh, ZNF655 / RFU, FAHD1 / Fold change vs veh, FAHD1 / RFU, BDP1 / Fold change vs veh, BDP1 / RFU, LRRCC1 / Fold change vs veh, LRRCC1 / RFU, ARID1A / Fold change vs veh, ARID1A / RFU, ZNF146 / Fold change vs veh, ZNF146 / RFU, ZNF330 / Fold change vs veh, ZNF330 / RFU, GPN3 / Fold change vs veh, GPN3 / RFU, C9orf123 / Fold change vs veh, C9orf123 / RFU, N4BP2L2 / Fold change vs veh, N4BP2L2 / RFU, ARFIP1 / Fold change vs veh, ARFIP1 / RFU, FAM179B / Fold change vs veh, FAM179B / RFU, BCL10 / Fold change vs veh, BCL10 / RFU, UHRF1BP1L / Fold change vs veh, UHRF1BP1L / RFU, BET1 / Fold change vs veh, BET1 / RFU, CNOT2 / Fold change vs veh, CNOT2 / RFU, ZNF268 / Fold change vs veh, ZNF268 / Fold change vs veh, ZNF507 / RFU, DGCR2 / Fold change vs veh, DGCR2 / RFU, WDSUB1 / Fold change vs veh, WDSUB1 / Fold change vs veh, HSP90B1 /// MIR3652 / RFU, ADSS / Fold change vs veh, ADSS / RFU, GK / Fold change vs veh, GK / RFU, ZNF148 / Fold change vs veh, ZNF148 / RFU, TAF9 / Fold change vs veh, TAF9 / RFU, SLC1A5 / Fold change vs veh, SLC1A5 / RFU, SLMO2 / Fold change vs veh, SLMO2 / RFU, ABCC4 / Fold change vs veh, ABCC4 / RFU, LOC101060439 /// RAP1B / Fold change vs veh, LOC101060439 /// RAP1B / RFU, RFX7 / Fold change vs veh, RFX7 / RFU, GTPBP10 / Fold change vs veh, GTPBP10 / RFU, CNEP1R1 / Fold change vs veh, CNEP1R1 / RFU, BIVM-ERCC5 /// ERCC5 / Fold change vs veh, BIVM-ERCC5 /// ERCC5 / RFU, ILF3 / Fold change vs veh, ILF3 / RFU 11762660_at / Fold change /veh 11762660_at / RFU VCAN (11757783_s_at) / Fold change /veh VCAN (11757783_s_at) / RFU DDX43 (11728927_at) / Fold change /veh DDX43 (11728927_at) / RFU KRT8 (11758188_x_at) / Fold change /veh KRT8 (11758188_x_at) / RFU NKD1 (11759106_at) / Fold change /veh NKD1 (11759106_at) / RFU SRD5A1 (11742802_a_at) / Fold change /veh SRD5A1 (11742802_a_at) / RFU TPSAB1 /// TPSB2 (11721975_s_at) / Fold change /veh TPSAB1 /// TPSB2 (11721975_s_at) / RFU GSTM3 (11746129_a_at) / Fold change /veh GSTM3 (11746129_a_at) / RFU IL23R (11737362_x_at) / Fold change /veh IL23R (11737362_x_at) / RFU TMEM51 (11727254_a_at) / Fold change /veh TMEM51 (11727254_a_at) / RFU PIWIL2 (11732686_x_at) / Fold change /veh PIWIL2 (11732686_x_at) / RFU ORM1 (11744905_x_at) / Fold change /veh ORM1 (11744905_x_at) / RFU CCDC152 (11743942_at) / Fold change /veh CCDC152 (11743942_at) / RFU ECM1 (11717891_a_at) / Fold change /veh ECM1 (11717891_a_at) / RFU IL23R (11748794_a_at) / Fold change /veh IL23R (11748794_a_at) / RFU TNFAIP8L3 (11732012_x_at) / Fold change /veh TNFAIP8L3 (11732012_x_at) / RFU MBOAT4 (11741988_at) / Fold change /veh MBOAT4 (11741988_at) / RFU 11764193_at / Fold change /veh 11764193_at / RFU TMEM53 (11763286_at) / Fold change /veh TMEM53 (11763286_at) / RFU MAGEB2 (11727129_at) / Fold change /veh MAGEB2 (11727129_at) / RFU TMEM200A (11744735_a_at) / Fold change /veh TMEM200A (11744735_a_at) / RFU CCDC152 (11751479_a_at) / Fold change /veh CCDC152 (11751479_a_at) / RFU FAM211A (11726209_a_at) / Fold change /veh FAM211A (11726209_a_at) / RFU RGS16 (11746705_a_at) / Fold change /veh RGS16 (11746705_a_at) / RFU VCAN (11755009_s_at) / Fold change /veh VCAN (11755009_s_at) / RFU RHOB (11743442_s_at) / Fold change /veh RHOB (11743442_s_at) / RFU RGS16 (11720943_a_at) / Fold change /veh RGS16 (11720943_a_at) / RFU RGS16 (11720944_at) / Fold change /veh RGS16 (11720944_at) / RFU, VPS4B / Fold change vs veh, VPS4B / RFU, CREB1 / Fold change vs veh, CREB1 / RFU, DNAJC13 / Fold change vs veh, DNAJC13 / RFU, GNAQ / Fold change vs veh, GNAQ / RFU, CDK5R1 / Fold change vs veh, CDK5R1 / RFU, ZRANB3 / Fold change vs veh, ZRANB3 / RFU, CUL4A / Fold change vs veh, CUL4A / RFU, CCNY / Fold change vs veh, CCNY / RFU, UFL1 / Fold change vs veh, UFL1 / RFU, COG3 / Fold change vs veh, COG3 / RFU, DIAPH2 / Fold change vs veh, DIAPH2 / RFU, SKA2 / Fold change vs veh, SKA2 / RFU, AFF3 / Fold change vs veh, AFF3 / RFU, LMF1 / Fold change vs veh, LMF1 / RFU, IPO11 / Fold change vs veh, IPO11 / RFU, DFFB / Fold change vs veh, DFFB / RFU, FOXP1 / Fold change vs veh, FOXP1 / RFU, CARD8 / Fold change vs veh, CARD8 / RFU, STRN3 / Fold change vs veh, STRN3 / RFU, ADK / Fold change vs veh, ADK / RFU, RASSF2 / Fold change vs veh, RASSF2 / RFU, WIPF1 / Fold change vs veh, WIPF1 / RFU, LARP1B / Fold change vs veh, LARP1B / RFU, RASA1 / Fold change vs veh, RASA1 / RFU, RB1 / Fold change vs veh, RB1 / RFU, PPFIA1 / Fold change vs veh, PPFIA1 / RFU, MAT2A / Fold change vs veh, MAT2A / RFU, CCT5 / Fold change vs veh, CCT5 / RFU, WDR92 / Fold change vs veh, WDR92 / RFU, CUX1 / Fold change vs veh, CUX1 / RFU, TTC7A / Fold change vs veh, TTC7A / RFU, TMEM135 / Fold change vs veh, TMEM135 / RFU, DEPTOR / Fold change vs veh, DEPTOR / RFU, CPM / Fold change vs veh, CPM / RFU, DNAJB6 / Fold change vs veh, DNAJB6 / RFU, CACNA2D3 / Fold change vs veh, CACNA2D3 / RFU, DTX4 / Fold change vs veh, DTX4 / RFU, TFCP2 / Fold change vs veh, TFCP2 / RFU, GMCL1 /// GMCL1P1 / Fold change vs veh, GMCL1 /// GMCL1P1 / RFU, AEBP2 / Fold change vs veh, AEBP2 / RFU, SNHG1 /// SNORD22 /// SNORD25 /// SNORD26 /// SNORD27 /// SNORD28 /// SNORD29 /// SNORD31 / Fold change vs veh, SNHG1 /// SNORD22 /// SNORD25 /// SNORD26 /// SNORD27 /// SNORD28 /// SNORD29 /// SNORD31 / Fold change (Aza/veh), C12orf56 (ProbeSet 11735607_a_at) / Fold change (ACY-1035/veh), C12orf56 (ProbeSet 11735607_a_at) / Fold change (Aza/veh), FGFR1OP (ProbeSet 11751329_s_at) / Fold change (ACY-1035/veh), FGFR1OP (ProbeSet 11751329_s_at) / Fold change (Aza/veh), VPS36 (ProbeSet 11739960_a_at) / Fold change (ACY-1035/veh), VPS36 (ProbeSet 11739960_a_at) / RFU SYPL1 (11715823_x_at) / Fold change /veh SYPL1 (11715823_x_at) / RFU IGFBP7 (11715501_s_at) / Fold change /veh IGFBP7 (11715501_s_at) / RFU REEP3 (11722064_at) / Fold change /veh REEP3 (11722064_at) / RFU IGLL1 (11728026_x_at) / Fold change /veh IGLL1 (11728026_x_at): dose or concentration left out as unconfirmed
Settings: ProbeSet 11739263_x_at; LIST D

`Nc1ncn([C@@H]2O[C@H](CO)[C@@H](O)[C@H]2O)c(=O)n1` [azacitidine] was tested, and the “Fold change vs veh, VPS4B” value was 0.80.
